Results from ChEMBL document CHEMBL1154213, “Composition of the fresh leaves and stems of Melissa officinalis and evaluation of skin irritation in a reconstituted human epidermis model” (J Nat Prod, 2009).
Converted amounts (≈) assume the structure as drawn. The source made the active and inactive calls. The calls are words filed in the database; no cut-off is given here.

How the values were obtained:
[1] = tested on: Radical scavenging activity; test: Antioxidant activity assessed as DPPH radical scavenging activity; type: functional
[2] = Cytotoxicity against human reconstituted epidermal cells at 17.1 mM after 15 mins of topical exposure followed by 42 hrs of recovery by MTT assay; type: cell-based; conditions: 0.25 h, 17100 µM
Homo sapiens = test: Antiinflammatory activity against reconstituted human epidermis model assessed as inhibition of IL1-alpha release measured after 15 mins of topical exposure followed by 42 hrs of recovery by ELISA; type: functional; conditions: Skin epidermis
Skin epidermis = test: Reduction of trans epithelial electrical resistance in human reconstituted epidermis after 15 mins of topical exposure followed by 42 hrs of recovery; type: functional
Staphylococcus aureus [3] = test: Antimicrobial activity against Staphylococcus aureus ATCC 6538 after 48 hrs by broth dilution method; type: functional; conditions: ATCC 6538, 48 h
Staphylococcus aureus [4] = test: Antimicrobial activity against Staphylococcus aureus ATCC 6538 after 24 hrs by broth dilution method; type: functional; conditions: ATCC 6538, 24 h
[5] = tested on: Staphylococcus epidermidis; test: Antimicrobial activity against Staphylococcus epidermidis ATCC 12228 after 48 hrs by broth dilution method; type: functional; conditions: ATCC 12228, 48 h
[6] = tested on: Staphylococcus epidermidis; test: Antimicrobial activity against Staphylococcus epidermidis ATCC 12228 after 24 hrs by broth dilution method; type: functional; conditions: ATCC 12228, 24 h
Bacillus spizizenii [7] = test: Antimicrobial activity against Bacillus spizizenii ATCC 6633 after 24 hrs by broth dilution method; type: functional
Bacillus spizizenii [8] = test: Antimicrobial activity against Bacillus spizizenii ATCC 6633 after 48 hrs by broth dilution method; type: functional; conditions: ATCC 6633, 48 h
Pseudomonas aeruginosa [9] = test: Antimicrobial activity against Pseudomonas aeruginosa ATCC 9027 after 24 hrs by broth dilution method; type: functional; conditions: ATCC 9027, 24 h
Pseudomonas aeruginosa [10] = test: Antimicrobial activity against Pseudomonas aeruginosa ATCC 9027 after 48 hrs by broth dilution method; type: functional; conditions: ATCC 9027, 48 h
Escherichia coli [11] = test: Antimicrobial activity against Escherichia coli ATCC 8739 after 24 hrs by broth dilution method; type: functional, organism-based
Escherichia coli [12] = test: Antimicrobial activity against Escherichia coli ATCC 8739 after 48 hrs by broth dilution method; type: functional, organism-based
Candida albicans [13] = test: Antimicrobial activity against Candida albicans ATCC 10231 after 24 hrs by broth dilution method; type: functional; conditions: ATCC 10231, 24 h
Candida albicans [14] = test: Antimicrobial activity against Candida albicans ATCC 10231 after 5 days by broth dilution method; type: functional, organism-based
Aspergillus niger [15] = test: Antimicrobial activity against Aspergillus niger ATCC 16404 after 24 hrs by broth dilution method; type: functional; conditions: ATCC 16404, 24 h
Aspergillus niger [16] = test: Antimicrobial activity against Aspergillus niger ATCC 16404 after 5 days by broth dilution method; type: functional, organism-based

Q: Which results are given for C[C@@H]1CC[C@]2(C(=O)O)CC[C@]3(C)C(=CC[C@@H]4[C@@]5(C)C[C@@H](O)[C@H](O)[C@@](C)(COS(=O)(=O)O)[C@@H]5CC[C@]43C)[C@@H]2[C@]1(C)O?
A: Activity [1]: inactive; Activity [2]: > 75%; Activity (Homo sapiens): Non-toxic; Activity (Skin epidermis): Non-toxic

Q: With C[C@@H]1CC[C@]2(C(=O)O[C@@H]3O[C@H](CO)[C@@H](O)[C@H](O)[C@H]3O)CC[C@]3(C)C(=CC[C@@H]4[C@@]5(C)C[C@@H](O)[C@H](O)[C@@](C)(COS(=O)(=O)O)[C@@H]5CC[C@]43C)[C@@H]2[C@]1(C)O as the molecule, how does the Activity [1] read?
A: inactive

Q: Which EC50 [1] does the source give for O=C(O)/C=C/c1ccc(O)c(O)c1 [CAFFEIC ACID] here?
A: 17.8 µM

Q: Which EC50 [1] does the source give for O=C(/C=C/c1ccc(O)c(O)c1)O[C@H](Cc1ccc(O)c(O)c1)C(=O)O [ROSMARINIC ACID] here?
A: 8 µM

Q: What about the MBC (Staphylococcus aureus [3]) of the same molecule?
A: 120 µg/mL (≈ 0.333 mM)

Q: What about the MIC (Staphylococcus aureus [4]) of the same molecule?
A: 120 µg/mL (≈ 0.333 mM)

Q: What about the MBC [5] of the same molecule?
A: 1000 µg/mL (≈ 2.78 mM)

Q: What about the MIC [6] of the same molecule?
A: 120 µg/mL (≈ 0.333 mM)

Q: What about the MIC (Bacillus spizizenii [7]) of the same molecule?
A: 4000 µg/mL (≈ 11.1 mM)

Q: What about the MBC (Bacillus spizizenii [8]) of the same molecule?
A: 4000 µg/mL (≈ 11.1 mM)

Q: What about the MIC (Pseudomonas aeruginosa [9]) of the same molecule?
A: 2000 µg/mL (≈ 5.55 mM)

Q: And the MBC (Pseudomonas aeruginosa [10])?
A: 4000 µg/mL (≈ 11.1 mM)

Q: What about the MIC (Escherichia coli [11]) of the same molecule?
A: inactive

Q: And the MBC (Escherichia coli [12])?
A: inactive

Q: And the MIC (Candida albicans [13])?
A: 2000 µg/mL (≈ 5.55 mM)

Q: And the MBC (Candida albicans [14])?
A: inactive

Q: What about the MIC (Aspergillus niger [15]) of the same molecule?
A: 4000 µg/mL (≈ 11.1 mM)

Q: And the MBC (Aspergillus niger [16])?
A: inactive
